Laboratory results as given in patent publication US7666254B1, “Borate compositions for wood preservation” (Osmose, Inc., priority 2006, dated 2010).

Test system: Coptotermes acinaciformis
Assay: ensis mean mass loss test: laboratory termite bioassay of treated Pinus radiata specimens, eight weeks
Format: in vivo
Details: 8 weeks exposure, mean of 6 replicates, SE in parentheses
From the text: Pinus radiata D. Don (Radiata pine) specimens (20×20×10 mm long) were cut from the sapwood of several pruned, fast-grown trees that had been harvested from the northern plantation forests of […], Australia. These samples are referred to as “ensis samples.” Trees were 20 to 24 years old. Specimens were pooled and randomly allocated into treatment groups. Prior to treatment, specimens were conditioned to 9.5% moisture content (m.c.). […] The solutions were used immediately. The following impregnation protocol was used: (the “ensis impregnation protocol”). Specimens were treated by drawing a vacuum of -95 kPa for 30 minutes, introducing the preservative solution while under vacuum, and immediately releasing the vacuum. Specimens were allowed to absorb the solution for 30 minutes atmospheric pressure. Each specimen was weighed before and immediately after treatment to determine retention. The specimens closest to the desired retentions were selected. Prior to bioassay against termites, all test specimens from each treatment were artificially weathered to H2 conditions by vacuum oven drying for three days at 40° C. and -95 kPa. After removal from the vacuum ovens, the specimens were cooled in a desiccator before being weighed to obtain initial masses. At each stage, care was taken to ensure that specimens of different treatments were kept separate. The weathering step removed from the specimens any volatiles that may be deleterious to termite health and vigor, as well as to provide artificial ageing. The test specimens were subjected to bioassay in accordance with the minimum requirements specified for H2 conditions in the Australasian Wood Preservation Committee Protocols for Assessment of Wood Preservatives (AWPC 1997), using one species of subterranean termite, Coptotermes acinaciformis. C. acinaciformis is widely distributed throughout mainland Australia and is responsible for greater economic loss that all other species of Australian termites combined (Gay and Calaby 1970). Only fresh, field collected stocks of termites were used for the bioassay. These termites were collected from the Northern Territory, transported by air to the Ensis Clayton laboratory and used promptly. Six replicate test specimens of each treatment were exposed to termites. A further three specimens were designated as vacuum oven controls. The following testing protocol was used (the “[…] loss test”). A single test specimen was centered on a 29 mm plastic disc to stop diffusion of boron out of the specimen. They were centrally placed on a moist matrix of C. acinaciformis finely ground mound material (20g, 100% m.c.) within a 250 ml glass jar (96 mm high, 62 mm diameter). Five grams of C. acinaciformis were added to each jar. A plastic lid, with a central 9 mm diameter ventilator, closed the jar (FIG. 1). The duration of the bioassay was eight weeks. The bioassay was conducted in an insectary maintained at 27° C., 70% RH. […] At the conclusion of the bioassay, test specimens were removed from the jars and cleaned. The test specimens, as well as vacuum oven controls, were then vacuum oven dried under the same conditions that were used to obtain the initial masses (i.e., 3 days at 40° C. and -95 kPa). After cooling and weighing the specimens, the final and initial masses were compared to obtain mass loss. If necessary, the mass loss of specimens exposed to termites was adjusted to accommodate any changes recorded in the vacuum oven controls.

Row | Structure (SMILES) | Mean mass loss (target retention 2.5 g/m^3 bifenthrin) | Mean mass loss (target retention 5.0 g/m^3 bifenthrin) | Mean mass loss (target retention 7.5 g/m^3 bifenthrin) | Mean mass loss (target retention 0.1% BAE (% m/m in OD wood)) | Mean mass loss (target retention 0.2% BAE) | Mean mass loss (target retention 0.5% BAE)
1 | Cc1c(COC(=O)[C@@H]2[C@H](/C=C(\Cl)C(F)(F)F)C2(C)C)cccc1-c1ccccc1 (racemic) [bifenthrin] | 15.6 (2.9) % | 4.8 (0.5) % | 4.2 (0.4) % |  |  | 
2 | O.O.O.O.O=BOB1OB(OB=O)OB2OB([O-])OB([O-])OB(O1)O2.[Na+].[Na+] [BAE, disodium octaborate tetrahydrate] |  |  |  | 93.5 (3.9) % | 30.9 (5.3) % | 48.6 (12.7) %
